From ChEMBL document CHEMBL1201862, “PubChem BioAssay data set” (2004)
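Interpolation was linear, between the two tested concentrations surrounding the appropriate level; five concentrations were tested over 48 hours in 96-well plates. GI50 = concentration required for 50% inhibition of growth.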 Active and inactive are the calls of the source. Cut-off read from the data, not from the text of the source: active = GI50 up to about 1.1 µM and inactive = higher.

Key:
Test in all cases: growth of human tumour cells (NCI), 48 h
[1] = tested on: 786-0
[2] = tested on: A549
[3] = tested on: BT-549
[4] = tested on: K562
[5] = tested on: MDA-MB-435
[6] = tested on: MDA-N
[7] = tested on: NCI-H460
[8] = tested on: NCI/ADR-RES
[9] = tested on: SK-MEL-2
[10] = tested on: SN12C
[11] = tested on: SW-620
[12] = tested on: TK-10
[13] = tested on: U-251
[14] = tested on: UACC-257
[15] = tested on: UACC-62
[16] = tested on: CCRF-CEM
[17] = tested on: HL-60
[18] = tested on: M14
[19] = tested on: RXF 393
[20] = tested on: SF-295

Measured: GI50

COc1cc(OC)cc(-n2c(N)c(-c3nc4ccccc4n3C)c3ccc([N+](=O)[O-])cc3c2=O)c1
inactive: [1] 64.7 µM | [2] > 100 µM | [3] > 100 µM | [4] > 100 µM | [5] > 100 µM | [6] > 100 µM | [7] > 100 µM | [8] 33.8 µM | [9] > 100 µM | [10] 94.4 µM | [11] > 100 µM | [12] > 100 µM | [13] 46.8 µM | [14] > 100 µM | [15] > 100 µM

Cc1ccc(S(=O)(=O)N2CCCN(S(=O)(=O)c3ccc(C)cc3)CCN(S(=O)(=O)c3ccc(C)cc3)CCCSCC2)cc1
inactive: [1] 45.2 µM | [2] > 100 µM | [3] > 100 µM | [16] > 100 µM | [17] > 100 µM | [4] > 100 µM | [18] > 100 µM | [5] > 100 µM | [6] > 100 µM | [7] > 100 µM | [8] > 100 µM | [19] > 100 µM | [20] 89.7 µM | [9] > 100 µM | [10] > 100 µM | [11] > 100 µM | [13] 76.7 µM | [15] > 100 µM

Cc1ccc(C2=Nc3c(N)nc(N)nc3NC(c3ccccc3)C2)cc1 (centres undefined)
inactive: [1] 12 µM | [2] 10.9 µM | [3] 9.46 µM | [16] 7.41 µM | [17] 3.08 µM | [4] 4.06 µM | [18] 8.26 µM | [5] 2.24 µM | [6] 2.22 µM | [7] 12.4 µM | [8] 4.34 µM | [19] 9.4 µM | [10] 11.4 µM | [11] 4.16 µM | [12] 14.4 µM | [13] 12.1 µM | [14] 12.2 µM | [15] 10.3 µM

N#C/C(C(=O)Nc1ccccc1)=C(/N)N1CCCCC1
inactive: [1] > 100 µM | [2] > 100 µM | [3] > 100 µM | [16] > 100 µM | [4] > 100 µM | [18] 91 µM | [5] 84.9 µM | [6] > 100 µM | [7] > 100 µM | [8] > 100 µM | [20] > 100 µM | [9] > 100 µM | [10] > 100 µM | [11] > 100 µM | [13] > 100 µM | [14] > 100 µM | [15] 95.7 µM

CCC(=O)NCCc1c[nH]c2ccc(OC)cc12
inactive: [1] > 100 µM | [2] > 100 µM | [3] > 100 µM | [16] > 100 µM | [4] > 100 µM | [18] > 100 µM | [5] > 100 µM | [6] > 100 µM | [7] > 100 µM | [8] > 100 µM | [19] > 100 µM | [20] > 100 µM | [9] > 100 µM | [10] > 100 µM | [11] > 100 µM | [12] > 100 µM | [13] > 100 µM | [14] > 100 µM | [15] > 100 µM

Cc1ccccc1NC(=O)Cc1csc2[n+]1C(=O)/C(=C/c1ccc([N+](=O)[O-])cc1)S2
inactive: [1] 58.9 µM | [2] 32 µM | [3] 13 µM | [17] 27.7 µM | [18] 32.2 µM | [5] 30.3 µM | [6] 37.2 µM | [7] 22.1 µM | [8] 42.4 µM | [20] 31.8 µM | [9] 29.4 µM | [10] 43.4 µM | [11] 33.6 µM | [12] 19.9 µM | [13] 29.7 µM | [14] 37.1 µM

O=C(NNC(=O)c1c(Cl)c(Cl)c(Cl)c(Cl)c1-c1nc2ccccc2[nH]1)c1ccc(Cl)cc1
inactive: [1] 51.8 µM | [2] 45 µM | [3] 46.1 µM | [16] 22.4 µM | [17] 36.1 µM | [4] 35.8 µM | [18] 35.5 µM | [5] 24 µM | [6] 21.3 µM | [8] 32.9 µM | [19] 43.4 µM | [20] 44.5 µM | [9] 37.9 µM | [10] 37.7 µM | [11] 50.7 µM | [15] 56.4 µM

Cc1cc(C)nc(SCCc2cccc[n+]2C)n1
inactive: [1] > 100 µM | [2] 34.4 µM | [3] > 100 µM | [16] > 100 µM | [17] > 100 µM | [4] > 100 µM | [18] > 100 µM | [5] > 100 µM | [6] > 100 µM | [7] > 100 µM | [8] > 100 µM | [19] > 100 µM | [20] > 100 µM | [10] > 100 µM | [11] > 100 µM | [12] > 100 µM | [13] > 100 µM | [14] > 100 µM | [15] > 100 µM

Cc1c(NC(=O)CSC(=S)N(C)C)c(=O)n(-c2ccccc2)n1C
inactive: [1] > 100 µM | [2] > 100 µM | [3] > 100 µM | [16] > 100 µM | [4] > 100 µM | [18] > 100 µM | [5] > 100 µM | [6] > 100 µM | [7] > 100 µM | [8] > 100 µM | [19] > 100 µM | [20] > 100 µM | [9] > 100 µM | [10] > 100 µM | [11] > 100 µM | [12] > 100 µM | [13] > 100 µM | [14] > 100 µM

O=C1CSC(c2cccc(Cl)c2)N1c1ccc(-c2ccc(-n3c(-c4ccccc4)nc4ccccc4c3=O)cc2)cc1 (centres undefined)
inactive: [1] 43.6 µM | [2] 54.2 µM | [3] 28.5 µM | [16] 29.9 µM | [17] 21.8 µM | [4] 35.6 µM | [18] 53.6 µM | [5] 52.1 µM | [6] 47.9 µM | [7] 32.9 µM | [8] 36.9 µM | [20] 51.8 µM | [9] 25.2 µM | [10] 62.4 µM | [11] > 100 µM | [12] 32.6 µM | [13] 52.1 µM | [14] 80.5 µM | [15] 31.4 µM

Cc1nc(C)c(N2CCN(C#N)CC2)c(O)n1
inactive: [1] > 100 µM | [2] > 100 µM | [3] > 100 µM | [16] > 100 µM | [17] > 100 µM | [4] > 100 µM | [18] > 100 µM | [5] > 100 µM | [6] > 100 µM | [7] > 100 µM | [8] > 100 µM | [19] > 100 µM | [20] > 100 µM | [10] > 100 µM | [11] > 100 µM | [12] > 100 µM | [13] 77.8 µM | [14] > 100 µM | [15] > 100 µM
